How the values were obtained:
Type in all cases: in vivo
[1] = tested on: Cucurbit Leaf Beetle (Aulacophora femoralis); assay: Test against cucurbit leaf beetle (Aulacophora femoralis), leaf immersion; conditions: 100 ppm; cucumber leaves immersed; second-instar larvae; after 7 days
Procedure: (§1) Unless not mentioned otherwise, the test solutions were prepared as follows:
(§2) Containing as solvent: Dimethylformamide, 3 parts by weight; and as emulsifier: Polyoxyethylene alkyl phenyl ether, 1 part by weight. To prepare the test solution, 1 part by weight of an active compound is mixed with the above-mentioned amount of solvent containing the above-mentioned amount of emulsifier, and the mixture is diluted with water to the desired concentration.
Cucumber leaves were immersed in the test solution at the appropriate concentration, and the leaves were dried in air. The leaves were then placed in a plastic cup containing sterilized black soil, and five second-instar larvae of cucurbit leaf beetle were released therein. The plastic cup was placed in a temperature-controlled chamber at 25° C. After 7 days, the number of dead larvae was counted, and thus the insecticidal activity was calculated. An insecticidal activity of 100% means that all beetles were killed, whereas an insecticidal activity of 0% means that no beetle was killed.

[2] = tested on: Nymphs of the tick Amblyomma hebraeum; assay: Amblyomma hebraeum test (AMBYHE); conditions: 100 ppm; nymphs immersed one minute; after 42 days
Procedure: (§3) Solvent: dimethyl sulfoxide
To produce a suitable preparation of active compound, 10 mg of active compound are dissolved in 0.5 ml solvent, and the concentrate is diluted with water to the desired concentration. Nymphs of the tick Amblyomma hebraeum are placed in perforated plastic beakers and immersed in aqueous compound solution for one minute. Ticks are transferred to a filter paper in a petri dish and incubated in a climate chamber for 42 days.
After 42 days mortality in % is determined. 100% means that all the ticks have been killed; 0% means that none of the ticks have been killed.

[3] = tested on: Tobacco Cutworm (Spodoptera litura) Larvae; assay: Test against tobacco cutworm larvae, root systemicity; conditions: 100 ppm; broccoli seedling roots dipped 3 days; second-instar larvae; after 4 days
Procedure: as §1, §2
The roots of seedling of broccoli at 1.2 leaf stage were dipped into the test solution at the appropriate concentration. After 3 days, the leaves were cut and placed in a petri dish having a diameter of 9 cm. And then five second-instar larvae of tobacco cutworm were released therein. The petri dish was placed in a temperature-controlled room at 25° C. After 4 days, the number of dead larvae was counted, to calculate the insecticidal activity. An insecticidal activity of 100% means that all larvae were killed, whereas an insecticidal activity of 0% means that no larva was killed.

[4] = tested on: Tobacco Cutworm (Spodoptera litura) Larvae; assay: Test against tobacco cutworm (Spodoptera litura) larvae, leaf immersion; conditions: 100 ppm; sweet potato leaves immersed; third-instar larvae; after 7 days
Procedure: as §1, §2
The leaves of sweet potato were immersed in the test solution at the appropriate concentration, and the leaves were dried in air. The leaves were then placed in a petri dish having a diameter of 9 cm, and ten third-instar larvae of tobacco cutworm were released therein. The petri dish was placed in a temperature-controlled chamber at 25° C. After 2 days and 4 days sweet potato leaves were additionally added. After 7 days, the number of dead larvae was counted to calculate the insecticidal activity. An insecticidal activity of 100% means that all larvae were killed, whereas an insecticidal activity of 0% means that no larva was killed. In the current test, the results of two petri dishes for each partition were averaged.

[5] = tested on: Two-Spotted Spider Mite (Tetranychus urticae); assay: Test against two-spotted spider mite (Tetranychus urticae), spray; conditions: 100 ppm; sprayed on kidney bean; adult mites; after 7 days
Procedure: as §1, §2
50 to 100 adult two-spotted spider mites were inoculated onto the leaves of kidney beans at the two-true leaf stage, which plant had been cultivated in a pot having a diameter of 6 cm. After one day, test solution at the appropriate concentration was sprayed thereon in a sufficient amount using a spray gun. After the spraying, the plant pot was placed inside a greenhouse, and after 7 days, the acaricidal activity was calculated. An acaricidal activity of 100% means that all mites were killed, whereas an acaricidal activity of 0% means that no mite was killed.

[6] = tested on: Ctenocephalides felis; assay: Ctenocephalides felis test (CTECFE); conditions: for mortality: 100 ppm in cattle blood, adult unfed fleas, after 2 days
Procedure: as §3
To produce a suitable preparation of active compound, 10 mg of active compound are dissolved in 0.5 ml solvent, and the concentrate is diluted with cattle blood to the desired concentration. Approximately 20 adult unfed (Ctenocepahlides felis) are placed in flea chambers. The blood chamber, sealed with parafilm on the bottom, are filled with cattle blood supplied with compound solution and placed on top of the flea chamber, so that the fleas are able to suck the blood. The blood chamber is heated to 37° C. whereas the flea chamber is kept at room temperature. After 2 days mortality in % is determined. 100% means that all the fleas have been killed; 0% means that none of the fleas have been killed.

[7] = tested on: adult engorged female Boophilus microplus ticks; assay: Boophilus microplus (dip); conditions: for mortality: 100 ppm, ticks immersed one minute, after 7 days
Procedure: Solvent: Dimethylsulfoxid
To produce a suitable preparation of active compound, 10 mg of active compound are dissolved in 0.5 ml solvent, and the concentrate is diluted with water to the desired concentration. Eight to ten adult engorged female Boophilus microplus ticks are placed in perforated plastic beakers and immersed in aqueous compound solution for one minute. Ticks are transferred to a filter paper in a plastic tray. Egg deposition of fertile eggs is monitored after. After 7 days mortality in % is determined. 100% means that all the ticks have been killed; 0% means that none of the ticks have been killed.

[8] = tested on: Tobacco Cutworm (Spodoptera litura) Larvae; assay: Test against tobacco cutworm larvae, systemic test by soil drench; conditions: 250 ppm, 20 ml soil drench on potted broccoli, leaves cut after 7 days, third-instar larvae
Procedure: as §1, §2
20 ml of the test solution at the appropriate concentration was treated on the soil surface of potted broccoli seedling at 2 to 3 leaf stage. After 7 days, the leaves were cut and placed in a petri dish having a diameter of 9 cm. And then ten third-instar larvae of tobacco cutworm were released therein. The petri dish was placed in a temperature-controlled room at 25° C. After 7 days, the number of dead larvae was counted to calculate the insecticidal activity. An insecticidal activity of 100% means that all larvae were killed, whereas an insecticidal activity of 0% means that no larva was killed. […] The comparative compound A is No. 1-72 in WO2009/097992.

[9] = tested on: Rice Leafroller (Cnaphalocrocis medinalis) Larvae; assay: Test against rice leafroller larvae, seed treatment; conditions: 8 g/1 kg dry seeds, leaves cut 28 days after seeding, third-instar larvae, after 7 days
Procedure: To prepare the test solution, 1 part by weight of an active compound is mixed with the 8 parts of acetone, and mix with 20 mg of micronized mineral. After that 1 g of dry rice seeds and 50 ul of water are added and mixed well and dried in the air. Sow treated seeds in the pot having a diameter of 12 cm. 28 days after seeding the leaves were cut and placed in a petri dish having a diameter of 9 cm. And then five third-instar larvae of rice leafroller were released therein. The petri dish was placed in a temperature-controlled room at 25° C. After 7 days, the number of dead larvae was counted to calculate the insecticidal activity. An insecticidal activity of 100% means that all larvae were killed, whereas an insecticidal activity of 0% means that no larva was killed. […] The comparative compound B is No. 1-79 in WO2009/097992.

[10] = tested on: Lucilia cuprina 1st instar larvae; assay: Lucilia cuprina (48 h)
Procedure: Species: Lucilia cuprina 1st instar larvae (age 24 hrs)
as §3
10 mg active compound are dissolved in 0.5 ml dimethyl sulfoxide. Serial dilutions are made to obtain the desired rates. Approximately 20 Lucilia cuprina 1st instar larvae are transferred into a test tube containing 1 cm^3 of minced horse meat and 0.5 ml aqueous dilution of test compound. After 48 hrs percentage of larval mortality are recorded. 100% efficacy=all larvae are killed, […].

[11] = tested on: Musca domestica; assay: Musca domestica test; conditions: for mortality: 100 ppm, sponge with sugar and compound solution, adults, after 2 days
Procedure: as §3
To produce a suitable preparation of active compound, 10 mg of active compound are dissolved in 0.5 ml solvent, and the concentrate is diluted with water to the desired concentration. Prior to the assay, a piece of kitchen sponge is soaked with a mixture of sugar and compound solution and placed into a container. 10 adults (Musca domestica) are placed into the container and closed with a perforated lid. After 2 days mortality in % is determined. 100% means that all the flies have been killed; 0% means that none of the flies have been killed.

SMILES	insecticidal activity [1]	insecticidal activity [3]	insecticidal activity [4]	acaricidal activity rate [5]	mortality [11]	other results
N#Cc1cc(C2=NCC(c3cc(Cl)c(F)c(Cl)c3F)(C(F)(F)F)C2)ccc1-n1cncn1 (stereo not drawn) [1-20]	100%	100%	100%	100%		mortality [2]: 100%
N#Cc1cc(C2=NCC(c3cccc(OC(F)F)c3)(C(F)(F)F)C2)ccc1-n1cncn1 (stereo not drawn) [1-483]	100%			100%		mortality [6]: 90%
Fc1cc(C2=NCC(c3cc(Cl)c(Cl)c(Cl)c3)(C(F)(F)F)C2)ccc1-n1cncn1 (stereo not drawn) [1-29]	100%		100%			mortality [7]: 95%
N#Cc1cc(C2=NCC(c3cncc(Cl)c3)(C(F)(F)F)C2)ccc1-n1cncn1 (stereo not drawn) [1-480]	100%			100%		mortality [6]: 90%
N#Cc1cc(C2=NCC(c3cc(C(F)(F)F)nc(C(F)(F)F)c3)(C(F)(F)F)C2)ccc1-n1cncn1 (stereo not drawn) [1-22]	100%	100%	100%	100%		insecticidal activity [8]: 100%; insecticidal activity [9]: 100%
N#Cc1cc(C2=NCC(c3cc(Cl)c4c(c3)OC(F)(F)O4)(C(F)(F)F)C2)ccc1-n1cncn1 (stereo not drawn) [1-25]	100%	100%	100%		90%	larval mortality ([10]; 100 ppm, minced horse meat, after 48 hrs): 90%
FC(F)(F)C1(c2cc(Cl)c(Cl)c(Cl)c2)CN=C(c2ccc(-n3cncn3)c(Cl)c2)C1 (stereo not drawn) [1-30]	100%		100%	100%		mortality [6]: 90%
N#Cc1cc(C2=NCC(c3cc(Cl)cc(C(F)(F)F)c3)(C(F)(F)F)C2)ccc1-n1cncn1 (stereo not drawn) [1-10]	100%	100%	100%	100%		mortality [2]: 100%
N#Cc1cc(C2=NCC(c3ccnc(C(F)(F)F)c3)(C(F)(F)F)C2)ccc1-n1cncn1 (stereo not drawn) [1-21]	100%	100%	100%	100%	80%	insecticidal activity [8]: 100%
N#Cc1cc(C2=NCC(c3cccc(C(F)(F)F)n3)(C(F)(F)F)C2)ccc1-n1cncn1 (stereo not drawn) [1-126]	100%	100%	100%		90%	mortality [6]: 90%
N#Cc1cc(C2=NCC(c3cc(Cl)nc(Cl)c3)(C(F)(F)F)C2)ccc1-n1cncn1 (stereo not drawn) [1-1, 5-[3-(2,6-dichloropyridin-4-yl)-3-(trifluoromethyl)-3,4-dihydro-2H-pyrrol-5-yl]-2-(1H-1,2,4-triazol-1-yl)benzonitrile]	100%	100%	100%	100%		mortality at 100 ppm ([6]; Ctenocephalides felis, 48 h): 100%; insecticidal activity [8]: 100%; mortality at 100 ppm ([7]; Rhipicephalus microplus, 168 h): 100%; mortality at 100 ppm ([10]; Lucilia cuprina, 48 h, read-out: larval mortality): 100%; mortality at 100 ppm ([11]; Musca domestica, 48 h): 100%; insecticidal activity [9]: 100%
N#Cc1cc(C2=NCC(c3cc(Cl)c([N+](=O)[O-])c(Cl)c3)(C(F)(F)F)C2)ccc1-n1cncn1 (stereo not drawn) [1-489]			100%		80%	mortality [7]: 80%
N#Cc1cc(C2=NCC(c3cc(OC(F)F)cc(OC(F)F)c3)(C(F)(F)F)C2)ccc1-n1cncn1 (stereo not drawn) [1-485]	100%	100%	100%	100%		mortality [7]: 90%
N#Cc1cc(C2=NCC(c3cc(Cl)nc(Cl)c3)(C(F)(F)F)C2)cnc1-n1cncn1 (stereo not drawn) [1-66]	100%	100%	100%		80%	
N#Cc1cc(C2=NCC(c3cc(Cl)c(F)c(Cl)c3)(C(F)(F)F)C2)ccc1-n1cncn1 (stereo not drawn) [1-13]	100%	100%	100%	100%		mortality [2]: 100%
N#Cc1cc(C2=NCC(c3cc(Cl)c(Cl)c(Cl)c3)(C(F)(F)F)C2)cnc1-n1cncn1 (stereo not drawn) [1-52]	100%		100%	100%		mortality [7]: 90%
FC(F)(F)C1(c2cc(Cl)nc(Cl)c2)CN=C(c2ccc(-n3cncn3)cc2)C1 (stereo not drawn) [1-2]	100%	100%	100%	100%	90%	

From patent publication US8410141B2, “Insecticidal arylpyrrolines” (Bayer Cropscience AG, priority 2009, dated 2013)
